Tests used:
[1] = tested on: human δ opioid receptor (hDOR-CHO cells); assay: Total inositol phosphate assay in hDOR-CHO cells; format: cell-based; conditions: DPDPE, Deltorphin II, M119 10 μM; naltrindole 100 μM; result in words
Protocol: (§1) Chinese hamster ovary (CHO) cells stably expressing either the human κ (hKOR-CHO), δ (hDOR-CHO)(L. Toll, Stanford Research Institute, Palo Alto, Calif.) or μ (hMOR-CHO)(G. Uhl, National Institute on Drug Abuse, Baltimore, Md.) opioid receptor were used in the experiments. Cells in 6-well plates were labeled by adding 4 μCi of [^3H]inositol for 24 hr in inositol-free F-10 media, without serum. After labeling, LiCl was added directly to the labeling media at a final concentration of 10 mM. Ligands or peptides were added at the same time. The final volume of each well was 1 mL. The plates were put back in to the incubator at 37° C. for 30 min after which time the medium was aspirated and the plates were washed twice with 1× PBS. Ice-cold 50 mM formic acid, 1 mL, was added to the plates which were placed in the cold room at 4° C. for 30 min. After the incubation, the contents of the plates were applied to Dowex AG1-X8 columns and allowed to flow all the way through the column. The columns were washed, twice each, with 50 and 100 mM formic acid, for a total of four washes, followed by elution of the IP-containing fraction with 3 mL of 1.2 M ammonium formate/0.1 M formic acid. The eluted fraction was mixed with Scintisafe scintillation fluid, for high salt, and counted. The data are represented as the fold increase over control in total inositol phospates. All experiments were repeated three times and performed in duplicate. Control cells for each experiment were labeled with [^3H]inositol and LiCl, in the same manner as the treatment groups.

[2] = tested on: opioid-induced antinociception in mice; assay: 55° C. warm-water tail-flick antinociception; format: in vivo, mouse; conditions: i.c.v., 20 min, 55° C. tail-flick; 95% CL in parentheses
[3] = tested on: human μ opioid receptor (hMOR-CHO cells); assay: Total inositol phosphate assay in hMOR-CHO cells; format: cell-based
Protocol: as §1

[4] = tested on: PLCβ2; conditions: Scott, et al. (2001); read-out: IC50 for inhibition of PLC β2 activation by Gβ1γ2; cited from earlier work
[5] = biological target: T1, Fαi1GDPβ1γ2 heterotrimer (UniProt P54311+P63212); assay: Dissociation of Fαi1 from preformed Fαi1β1γ2 heterotrimer (flow cytometry); format: binding; conditions: result in words
T1 construct: made in house; host or cells: b-βγ: Sf9 insect cells
T1 sequence (P54311 whole entry): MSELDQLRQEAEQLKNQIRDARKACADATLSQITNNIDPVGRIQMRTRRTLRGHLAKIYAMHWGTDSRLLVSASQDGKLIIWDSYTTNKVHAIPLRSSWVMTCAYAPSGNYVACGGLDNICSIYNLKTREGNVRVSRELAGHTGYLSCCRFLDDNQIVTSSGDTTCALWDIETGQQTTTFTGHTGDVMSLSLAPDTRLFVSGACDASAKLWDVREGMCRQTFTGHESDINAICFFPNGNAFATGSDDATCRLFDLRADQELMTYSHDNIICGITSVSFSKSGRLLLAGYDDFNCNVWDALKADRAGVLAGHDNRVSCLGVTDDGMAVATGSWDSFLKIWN
T1 sequence (P63212 2-68 limits assumed): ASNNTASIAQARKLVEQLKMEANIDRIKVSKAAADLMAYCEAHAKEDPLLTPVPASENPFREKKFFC
Protocol: Assays were used to determine peptide effects on Gα-Gβγ interactions included competition and dissociation assays (Ghosh, et al. (2003) supra). […] To measure dissociation of Fan from b-Gβaγ2, 100 pM of Fa^ was incubated with 50 pM immobilized b-Gβ1γ2 at room temperature for 15-20 minutes. The fluorescence of bound Fαii subunit was measured, followed by the addition of a 200-fold excess of unlabeled Gcx±x or peptides and the amount of Fan remaining bound to the beads was measured at the indicated times.
The ability of peptides to dissociate a preformed hetero-trimer was assessed by comparing the rates of Fαi1 dissociation from Fαi1β1γ2 with excess unlabeled αi1 competitor (intrinsic dissocia-tion rate) and in the presence of a saturating concentration of peptide.

Compound | effect on IP generation over control treated cells [1] | ED50 of opioid agonist alone [2] [nmol] | effect of compound by itself on IP production [3] | IC50 [4] [µM] | promotion/acceleration of heterotrimer dissociation [5]
[D-Pen^2,D-Pen^5]enkephalin [DPDPE] | neither DPDPE (10 μM) (FIG. 15C) nor Deltorphin II (10 μM) (FIG. 15D) significantly increased IP generation | 6.5 | no effect | – | –
Oc1ccc2c3c1O[C@H]1c4[nH]c5ccccc5c4C[C@@]4(O)[C@@H](C2)N(CC2CC2)CC[C@]314 [naltrindole] | no significant effect | – | – | – | –
CC[C@H](C)[C@H](NC(=O)[C@H](CC(N)=O)NC(=O)[C@H](CC(C)C)NC(=O)[C@H](C)NC(=O)[C@H](CCCCN)NC(=O)[C@H](CCCNC(=N)N)NC(=O)[C@@H](NC(=O)[C@@H](N)CO)[C@@H](C)CC)C(=O)N[C@@H](CC(C)C)C(=O)NCC(=O)N[C@@H](Cc1ccc(O)cc1)C(=O)N1CCC[C@H]1C(=O)N[C@@H](CC(=O)O)C(=O)N[C@@H](Cc1ccc(O)cc1)C(=O)N[C@@H](CC(=O)O)C(=O)O [SIRK] | – | – | – | 5 | promotes dissociation

— patent US8975259B2, “Compositions and methods for inhibiting G protein signaling” (University of Rochester, priority 2007, dated 2015)
